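96-well plates; 48 h exposure; 5 concentrations. Endpoints by linear interpolation between flanking doses. Not reached: highest tested concentration assigned. GI50 marks 50% less growth. TGI: concentration producing complete growth inhibition.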
Columns and labels:
Assay in all cases: NCI anticancer screen, dose series, 48 h
[1] = system: 786-0 renal
[2] = system: A549 NSCLC
[3] = system: ACHN renal
[4] = system: BT-549 breast
[5] = system: CAKI-1 renal
[6] = system: CCRF-CEM leukemia
[7] = system: COLO 205 colon
[8] = system: DU-145 prostate
[9] = system: EKVX NSCLC
[10] = system: HCC-2998 colon
[11] = system: HCT-116 colon
[12] = system: HCT-15 colon
[13] = system: HL-60(TB) leukemia
[14] = system: HOP-62 NSCLC
[15] = system: HOP-92 NSCLC
[16] = system: HS 578T breast
[17] = system: HT29 colon
[18] = system: IGROV1 ovarian
[19] = system: K-562 leukemia
[20] = system: KM12 colon
[21] = system: LOX IMVI melanoma
[22] = system: MCF7 breast
[23] = system: MDA-MB-231 breast
[24] = system: MOLT-4 leukemia
[25] = system: NCI-H226 lung
[26] = system: NCI-H23 lung
[27] = system: NCI-H460 lung
[28] = system: NCI-H522 lung
[29] = system: NCI/ADR-RES ovarian
[30] = system: OVCAR-3 ovarian
[31] = system: OVCAR-4 ovarian
[32] = system: OVCAR-5 ovarian
[33] = system: OVCAR-8 ovarian
[34] = system: PC-3 prostate
[35] = system: RPMI-8226 leukemia
[36] = system: RXF 393 renal
[37] = system: SF-268 CNS
[38] = system: SF-295 CNS
[39] = system: SF-539 CNS
[40] = system: SK-MEL-2 melanoma
[41] = system: SK-MEL-28 melanoma
[42] = system: SK-MEL-5 melanoma
[43] = system: SK-OV-3 ovarian
[44] = system: SN12C renal
[45] = system: SNB-19 CNS
[46] = system: SNB-75 CNS
[47] = system: SR leukemia
[48] = system: SW-620 colon
[49] = system: T-47D breast
[50] = system: TK-10 renal
[51] = system: U251 CNS
[52] = system: UACC-257 melanoma
[53] = system: UACC-62 melanoma
[54] = system: UO-31 renal
[55] = system: M14 melanoma
[56] = system: MALME-3M melanoma
[57] = system: MDA-MB-435

SMILES: C/C(=C\c1ccn(-c2ccc(N)cc2F)n1)[C@@H]1C[C@@H]2O[C@]2(C)CCC[C@H](C)[C@H](O)[C@@H](C)C(=O)C(C)(C)[C@@H](O)CC(=O)O1
- GI50 [1]: 99.2 nM
- TGI [1]: > 50000 nM
- GI50 [2]: 35.5 nM
- TGI [2]: > 50000 nM
- GI50 [3]: 202 nM
- TGI [3]: > 50000 nM
- GI50 [4]: 94.3 nM
- TGI [4]: > 50000 nM
- GI50 [5]: 123 nM
- TGI [5]: > 50000 nM
- GI50 [6]: 19.7 nM
- TGI [6]: > 50000 nM
- GI50 [7]: 17.2 nM
- TGI [7]: 442 nM
- GI50 [8]: 24 nM
- TGI [8]: 285 nM
- GI50 [9]: 360 nM
- TGI [9]: > 50000 nM
- GI50 [10]: 34.7 nM
- TGI [10]: > 10600 nM
- GI50 [11]: 16.9 nM
- TGI [11]: > 50000 nM
- GI50 [12]: 22.6 nM
- TGI [12]: > 50000 nM
- GI50 [13]: 17.4 nM
- TGI [13]: 859 nM
- GI50 [14]: 38.4 nM
- TGI [14]: > 50000 nM
- GI50 [15]: 6510 nM
- TGI [15]: > 50000 nM
- GI50 [16]: 60.6 nM
- TGI [16]: > 16600 nM
- GI50 [17]: 17.3 nM
- TGI [17]: > 29000 nM
- GI50 [18]: 44.8 nM
- TGI [18]: > 50000 nM
- GI50 [19]: 19.7 nM
- TGI [19]: > 50000 nM
- GI50 [20]: 15.6 nM
- TGI [20]: > 50000 nM
- GI50 [21]: 24.1 nM
- TGI [21]: > 50000 nM
- GI50 [22]: < 11.9 nM
- TGI [22]: > 50000 nM
- GI50 [23]: 132 nM
- TGI [23]: > 50000 nM
- GI50 [24]: 28.6 nM
- TGI [24]: > 21800 nM
- GI50 [25]: 5450 nM
- TGI [25]: > 50000 nM
- GI50 [26]: 33 nM
- TGI [26]: > 50000 nM
- GI50 [27]: 19.7 nM
- TGI [27]: > 50000 nM
- GI50 [28]: 25.5 nM
- TGI [28]: 171 nM
- GI50 [29]: 92.1 nM
- TGI [29]: 1190 nM
- GI50 [30]: 16.6 nM
- TGI [30]: 159 nM
- GI50 [31]: 400 nM
- TGI [31]: > 50000 nM
- GI50 [32]: 116 nM
- TGI [32]: > 50000 nM
- GI50 [33]: 40.8 nM
- TGI [33]: > 50000 nM
- GI50 [34]: 25.6 nM
- TGI [34]: > 50000 nM
- GI50 [35]: 20.4 nM
- TGI [35]: > 50000 nM
- GI50 [36]: 28.6 nM
- TGI [36]: 404 nM
- GI50 [37]: 82.2 nM
- TGI [37]: > 50000 nM
- GI50 [38]: 57.6 nM
- TGI [38]: > 50000 nM
- GI50 [39]: 35.2 nM
- TGI [39]: 296 nM
- GI50 [40]: 51.8 nM
- TGI [40]: > 50000 nM
- GI50 [41]: 1050 nM
- TGI [41]: > 50000 nM
- GI50 [42]: 19.9 nM
- GI50 [43]: 172 nM
- TGI [43]: > 50000 nM
- GI50 [44]: 76.8 nM
- TGI [44]: > 50000 nM
- GI50 [45]: 242 nM
- TGI [45]: > 50000 nM
- GI50 [46]: 7.66 nM
- TGI [46]: 206 nM
- GI50 [47]: 23.6 nM
- TGI [47]: > 50000 nM
- GI50 [48]: 21.2 nM
- TGI [48]: > 50000 nM
- GI50 [49]: 60.5 nM
- TGI [49]: > 50000 nM
- GI50 [50]: 93.9 nM
- TGI [50]: > 50000 nM
- GI50 [51]: 28.5 nM
- TGI [51]: > 50000 nM
- GI50 [52]: > 50000 nM
- TGI [52]: > 50000 nM
- GI50 [53]: 91.4 nM
- TGI [53]: > 50000 nM
- GI50 [54]: 176 nM
- TGI [54]: > 50000 nM

SMILES: CC(=O)C1=C(O)CCC1=O
- TGI [2]: > 100000 nM
- TGI [3]: > 100000 nM
- TGI [4]: > 100000 nM
- TGI [5]: > 100000 nM
- TGI [6]: > 100000 nM
- TGI [7]: > 100000 nM
- TGI [8]: > 100000 nM
- TGI [9]: > 100000 nM
- TGI [10]: > 100000 nM
- TGI [11]: > 100000 nM
- TGI [13]: > 100000 nM
- TGI [14]: > 100000 nM
- TGI [15]: > 100000 nM
- TGI [16]: > 100000 nM
- TGI [17]: > 100000 nM
- TGI [18]: > 100000 nM
- TGI [19]: > 100000 nM
- TGI [20]: > 100000 nM
- TGI [21]: > 100000 nM
- TGI [55]: > 100000 nM
- TGI [56]: > 100000 nM
- TGI [22]: > 100000 nM
- TGI [57]: > 100000 nM
- TGI [24]: > 100000 nM
- TGI [25]: > 100000 nM
- TGI [26]: > 100000 nM
- TGI [27]: > 100000 nM
- TGI [28]: > 100000 nM
- TGI [29]: > 100000 nM
- TGI [30]: > 100000 nM
- TGI [31]: > 100000 nM
- TGI [32]: > 100000 nM
- TGI [33]: > 100000 nM
- TGI [34]: > 100000 nM
- TGI [35]: > 100000 nM
- TGI [36]: > 100000 nM
- TGI [37]: > 100000 nM
- TGI [38]: > 100000 nM
- TGI [39]: > 100000 nM
- TGI [40]: > 100000 nM
- TGI [41]: > 100000 nM
- TGI [42]: > 100000 nM
- TGI [43]: > 100000 nM
- TGI [44]: > 100000 nM
- TGI [45]: > 100000 nM
- TGI [46]: > 100000 nM
- TGI [47]: > 100000 nM
- TGI [48]: > 100000 nM
- TGI [49]: > 100000 nM
- TGI [50]: > 100000 nM
- TGI [51]: > 100000 nM
- TGI [52]: > 100000 nM
- TGI [53]: > 100000 nM
- TGI [54]: > 100000 nM
